Results on one compound are retold here after paper PMC6961122 (Bioorganic & Medicinal Chemistry, 2020).

Where two headings read alike, the source gives them in different places.

Assay [1] deals with T98 cells. The experiment in a line: Cell viability assay (PrestoBlue, 5 d) in T98 glioma cells. Conditions: Homo sapiens, T98, 120 h; repeat for most potent hits; 7-point half-log dose-response 1 to 1,000 nM; PrestoBlue day 5. The assay is classed as cell-based.
The subject of assay [2] is mTOR. The arrangement: method as in earlier work. To be noted: recombinant kinase; previously obtained kinase profiling data; cited from earlier work.
The test system of assay [3] is U87 cells. The experiment in a line: Cell viability assay (PrestoBlue, 5 d) in U87 glioma cells. It is filed as cell-based. To be noted: Homo sapiens, U-87 MG, 120 h; repeat for most potent hits; 7-point half-log dose-response 1 to 1,000 nM; PrestoBlue day 5.
For assay [4], the system named is G317 patient-derived glioma cells. The experiment in a line: Growth inhibition (GI50, PrestoBlue, 5 d) in patient-derived glioma cells G317. The assay is classed as cell-based, human. To be noted: Homo sapiens, Glioma cell, 120 h, 5 d treatment, growth related to t=0 and DMSO, extrapolated from sigmoidal dose-response curve, read-out: GI50 (50% of growth inhibition) in G317. Here is the method: Cells were treated with each inhibitor at concentrations ranging from 1 to 10,000 nM and PrestoBlue assay used at day 5 to detect viability. […] Data are means ± SEM of 3 independent experiments in triplicates.
U87 and T98 cells (ATCC) were cultured in DMEM (Gibco), supplemented with 10% (v/v) FBS (Gibco) and 2 mM L-Glutamine (Gibco) in a standard incubator (95% humidity, 5% CO2), and subcultured twice per week through trypsinization. G317 patient-derived glioma cells were established by the Glioma Cellular Genetics Resource (gcgr.org.uk) funded by Cancer Research UK. Ethics approval for use of patient-derived cells and early access confirmation to reagents from the Glioma Cellular Genetics Resource assured that all ethical issues according to UK legislation are fulfilled. G317 were cultured in DMEM/HAMS-F12 (Sigma) supplemented with 1.5 g L^−1 D-(+)-Glucose (Sigma), MEM non-essential aminoacids (Gibco), 0.015% (w/v) Penicillin-Streptomycin (Gibco), 0.012% (w/v) BSA (Gibco), 0.1 mM β-mercaptoethanol (Gibco), B27 (Gibco) and N2 supplements (Gibco). Cells were detached using accutase solution (Sigma) and subcultured once per week. Before adding to the cells, medium was supplemented with 10 ng ml^−1 mouse EGF (Preprotech), 10 ng ml^−1 human FGF (Preprotech), and 1 µg ml^−1 Laminin (Sigma).
1 × 10^3 U87 cells/well, 5 × 10^2 T98 cells/well, 1 × 10^4 G317 cells/well, 1 × 10^4 HBVP cells/well and 1 × 10^4 bEnd3 cells/well were seeded in 96-well plates. After 48 h in culture, cells were treated with the inhibitors for 5 d. For GI50 determination, the viability of a triplicate sample of each experiment before treatment was measured with the PrestoBlue Reagent (Invitrogen), to establish a basepoint 0% of growth. […] ZIP Synergy scores were obtained with Synergy finder.[22] Viability percentage, EC50 and GI50 values were obtained using GraphPad Prism version 8.0.0 for Windows, GraphPad Software, San Diego, California USA, www.graphpad.com.
Table S2 . GI 50 values (nM) calculated for eCF309 , eCF311 , eCF312 , eCF324 , eCF325 and controls
Cells were treated with 10, 3, 1 µM,
300, 100, 30, 10, 3, 1, 0 nM of each inhibitor during 5 d. Cell growth (PrestoBlue) was related to t=0 (before
drug treatment), and GI 50 values were extrapolated from their corresponding sigmoidal dose-response curve

The subject of assay [5] is U87 cells. Briefly: Cell viability assay (PrestoBlue, 5 d) in U87 glioma cells. It is filed as cell-based. To be noted: Homo sapiens, U-87 MG, 120 h, library screen, 5 d treatment, mean of three independent experiments in triplicates, read-out: EC50 U87 ± SEM.
Assay [6] concerns PI3Kα. Also on record: method as in earlier work. Conditions: recombinant kinase; previously obtained kinase profiling data; cited from earlier work.
The subject of assay [7] is G317 spheroids. The experiment in a line: 3D spheroids assay, G317 spheroid area. It is filed as cell-based, human. To be noted: pre-formed spheroids; 0.01–10 µM for 8 days. How it is done:
To test the compounds under conditions that better represent the tumour microenvironment, G317 cells were cultured in 3D and pre-formed spheroids treated with eCF309, eCF324 and the positive controls at a range of concentrations (0.01–10 µM) for 8 days.
Fig. 6 (a) Images of G317 spheroids on day 10. Spheroids were treated with 10 μM of each inhibitor during 8 days, images were acquired using ImageXpress. Scale bar = 100 μm. (b) Area of G317 patient derived spheroids at day 10. Spheroid area was calculated with a custom pipeline on CellProfiler. Data are mean ± SEM of 6 independent spheroids from two different cultures, ***P < 0.001, **P < 0.01 compared to DMSO controls (two-way ANOVA, Tukey post hoc test).
4 × 10^3 G317 cells were seeded in an ultra-low attachment round bottom 96-well plate, centrifuged at 1000g, 4 °C for 10 min and allowed to form spheroids for 2 days. Spheroids were then incubated with the inhibitors at 4 concentrations ranging from 10 nM to 10 µM. Spheroids were imaged at day 10 using ImageXpress (Molecular Devices LLC) and processed with ImageJ.[25] Spheroid area was calculated with a custom pipeline on CellProfiler.[26]

The test system of assay [8] is T98 cells. The experiment in a line: Cell viability assay (PrestoBlue, 5 d) in T98 glioma cells. The assay is classed as cell-based. To be noted: Homo sapiens, T98, 120 h, library screen, 5 d treatment, mean of three independent experiments in triplicates, read-out: EC50 T98 ± SEM.

As a reminder, the EC50 is the midpoint of the concentration-response curve. The IC50 is the point on the concentration scale where inhibition reaches its midpoint. What is called GI50 is the concentration giving 50% growth inhibition. As for `Nc1nc2cc(-c3nn(CC4CCCC4)c4ncnc(N)c34)ccc2o1` [eCF324], the concentration giving a half-maximal response (EC50) in assay [1] was 10 nM; in assay [3], 13 nM; in assay [5], 16 ± 3 nM; in assay [8], 11 ± 3 nM. Also, the figures for the IC50 in assay [2] and in assay [6] were 1.8 nM and 3.5 nM, respectively. For the same compound, the GI50 in assay [4] was 7.2 nM. Moreover, the “reduction of G317 spheroid size (area at day 10)” value in assay [7] is recorded as “most potent antiproliferative activities”.
